Results on twelve compounds are retold here after patent publication US9896438B2, “2,2,2-trifluoroethyl-thiadiazines” (Hoffmann-La Roche Inc., priority 2014, dated 2018).

Where a name gives a salt, the structure may show the parent alone.

One may read the IC50 as the concentration that inhibits the measured activity by half. Higher therefore signals weaker potency.

The target in the test is T1, BACE1 (Homo sapiens, UniProt P56817).
T1 construct: endogenous in cells; host or cells: HEK293 APP cells
In words: Cellular Aβ-lowering assay (Abeta 40 AlphaLISA in HEK293 APP cells). The format is cell-based. To be noted: 18-20 hrs incubation, Aβ 40 in culture supernatants by AlphaLISA. The method, then:
Cellular Aβ-Lowering Assay:
The Abeta 40 AlphaLISA Assay can be used. The HEK293 APP cells were seeded in 96 well Microtiter plates in cell culture medium (Iscove's, plus 10% (v/v) fetal bovine serum, penicillin/streptomycin) to about 80% confluency and the compounds were added at a 3× concentration in ⅓ volume of culture medium (final DMSO concentration was kept at 1% v/v). After 18-20 hrs incubation at 37° C. and 5% CO2 in a humidified incubator, the culture supernatants were harvested for the determination of Aβ 40 concentrations using Perkin-Elmer Human Amyloid beta 1-40 (high specificity) Kit (Cat# AL275C).
In a Perkin-Elmer White Optiplate-384 (Cat#6007290), 2 ul culture supernatants were combined with 2 μl of a 10× AlphaLISA Anti-hAβAcceptor beads+Biotinylated Antibody Anti-Aβ 1-40 Mix (50 μg/mL/5 nM). After 1 hour room temperature incubation, 16 μl of a 1.25× preparation of Streptavidin (SA) Donor beads (25 μg/mL) were added and incubated for 30 minutes in the Dark. Light Emission at 615 nm was then recorded using En Vision-Alpha Reader. Levels of Aβ 40 in the culture supernatants were calculated as percentage of maximum signal (cells treated with 1% DMSO without inhibitor). The IC50 values were calculated using the Excel XLfit software.
For orientation: In Alpha technology, singlet oxygen from a donor bead excites a nearby acceptor bead.

T1 sequence (P56817 46-501): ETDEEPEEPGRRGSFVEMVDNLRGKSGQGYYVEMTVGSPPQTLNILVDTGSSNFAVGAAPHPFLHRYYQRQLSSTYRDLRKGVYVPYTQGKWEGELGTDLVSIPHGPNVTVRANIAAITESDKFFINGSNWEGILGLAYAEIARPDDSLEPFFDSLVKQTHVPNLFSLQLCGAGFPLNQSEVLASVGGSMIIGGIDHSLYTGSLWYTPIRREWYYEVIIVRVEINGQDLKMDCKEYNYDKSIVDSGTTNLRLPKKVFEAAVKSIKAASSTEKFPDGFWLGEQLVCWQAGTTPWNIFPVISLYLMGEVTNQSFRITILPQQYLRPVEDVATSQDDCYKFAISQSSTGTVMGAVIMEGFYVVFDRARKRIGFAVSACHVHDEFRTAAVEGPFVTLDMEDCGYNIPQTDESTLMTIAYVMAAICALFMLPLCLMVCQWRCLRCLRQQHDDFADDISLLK

`CN=S1(=O)C[C@@](C)(c2nc(NC(=O)c3ncc(C#N)cc3C)ccc2F)N=C(N)N1CC(F)(F)F` (stereo partly drawn) [Example 16, N-[6-[(5R)-3-amino-5-methyl-1-methylimino-1-oxo-2-(2,2,2-trifluoroethyl)-6H-1,2,4-thiadiazin-5-yl]-5-fluoropyridin-2-yl]-5-cyano-3-methylpyridine-2-carboxamide; 2,2,2-trifluoroacetic Acid] had an IC50 of 0.593 nM. The value for `Cc1cc(C#N)cnc1C(=O)Nc1ccc(F)c([C@]2(C)C[S@@](=O)(=NCC(F)(F)F)N(C)C(N)=N2)n1` [Example 3, N-[6-[(1R,5R)-3-amino-2,5-dimethyl-1-oxo-1-(2,2,2-trifluoroethylimino)-6H-1,2,4-thiadiazin-5-yl]-5-fluoro-2-pyridyl]-5-cyano-3-methyl-pyridine-2-carboxamide 2,2,2-trifluoroacetic Acid Salt] was 0.991 nM; that for `COc1cnc(C(=O)Nc2ccc(F)c([C@]3(C)C[S@@](=O)(=NCC(F)(F)F)N(C)C(N)=N3)n2)cn1` [Example 8, N-[6-[(1R,5R)-3-amino-2,5-dimethyl-1-oxo-1-(2,2,2-trifluoroethylimino)-6H-1,2,4-thiadiazin-5-yl]-5-fluoropyridin-2-yl]-5-methoxypyrazine-2-carboxamide 2,2,2-trifluoroacetic Acid Salt] was 10.1 nM; that for `CN=S1(=O)C[C@@](C)(c2nc(NC(=O)c3ncc(C#N)cc3Cl)ccc2F)N=C(N)N1CC(F)(F)F` (stereo partly drawn) [Example 17, N-(6-((5R)-3-amino-5-methyl-1-(methylimino)-1-oxido-2-(2,2,2-trifluoroethyl)-5,6-dihydro-2H-1,2,4-thiadiazin-5-yl)-5-fluoropyridin-2-yl)-3-chloro-5-cyanopicolinamide] was 0.292 nM. The result for `CN=S1(=O)CC(C)(c2nc(NC(=O)c3ncc(C#N)cc3C)ccc2F)N=C(N)N1CC(F)(F)F` (stereo not drawn) [Example 13, N-[6-[3-amino-5-methyl-1-methylimino-1-oxo-2-(2,2,2-trifluoroethyl)-6H-1,2,4-thiadiazin-5-yl]-5-fluoropyridin-2-yl]-5-cyano-3-methylpyridine-2-carboxamide; 2,2,2-trifluoroacetic Acid] reads 134 nM; that for `CN=S1(=O)C[C@@](C)(c2nc(NC(=O)c3ncc(C#N)cc3C)ccc2F)N=C(N)N1CC(F)(F)F` (stereo partly drawn) [Example 15, N-[6-[(5R)-3-amino-5-methyl-1-methylimino-1-oxo-2-(2,2,2-trifluoroethyl)-6H-1,2,4-thiadiazin-5-yl]-5-fluoropyridin-2-yl]-5-cyano-3-methylpyridine-2-carboxamide; 2,2,2-trifluoroacetic acid], 0.986 nM. The value for `Cc1cc(F)cnc1C(=O)Nc1ccc(F)c([C@]2(C)C[S@@](=O)(=NCC(F)(F)F)N(C)C(N)=N2)n1` [Example 5, N-[6-[(1R,5R)-3-amino-2,5-dimethyl-1-oxo-1-(2,2,2-trifluoroethylimino)-6H-1,2,4-thiadiazin-5-yl]-5-fluoropyridin-2-yl]-5-fluoro-3-methylpyridine-2-carboxamide 2,2,2-trifluoroacetic Acid Salt] was 13.9 nM; that for `CN1C(N)=N[C@](C)(c2nc(NC(=O)c3ccc(C#N)cn3)ccc2F)C[S@@]1(=O)=NCC(F)(F)F` [Example 4, N-[6-[(1R,5R)-3-amino-2,5-dimethyl-1-oxo-1-(2,2,2-trifluoroethylimino)-6H-1,2,4-thiadiazin-5-yl]-5-fluoro-2-pyridyl]-5-cyano-pyridine-2-carboxamide 2,2,2-trifluoroacetic Acid Salt] was 2.7 nM; that for `CN=S1(=O)C[C@@](C)(c2nc(NC(=O)c3ncc(F)cc3C)ccc2F)N=C(N)N1CC(F)(F)F` (stereo partly drawn) [Example 18, N-[6-[(5R)-3-amino-5-methyl-1-methylimino-1-oxo-2-(2,2,2-trifluoroethyl)-6H-1,2,4-thiadiazin-5-yl]-5-fluoropyridin-2-yl]-5-fluoro-3-methylpyridine-2-carboxamide; 2,2,2-trifluoroacetic acid] was 74.5 nM. For the compound `CN1C(N)=N[C@](C)(c2nc(NC(=O)c3ccc(OCF)cn3)ccc2F)C[S@@]1(=O)=NCC(F)(F)F` [Example 6, N-[6-[(1R,5R)-3-amino-2,5-dimethyl-1-oxo-1-(2,2,2-trifluoroethylimino)-6H-1,2,4-thiadiazin-5-yl]-5-fluoropyridin-2-yl]-5-(fluoromethoxy)pyridine-2-carboxamide 2,2,2-trifluoroacetic Acid Salt], the IC50 is 3.84 nM. The result for `CC#CCOc1cnc(C(=O)Nc2ccc(F)c([C@]3(C)C[S@@](=O)(=NCC(F)(F)F)N(C)C(N)=N3)n2)cn1` [Example 7, N-[6-[(1R,5R)-3-amino-2,5-dimethyl-1-oxo-1-(2,2,2-trifluoroethylimino)-6H-1,2,4-thiadiazin-5-yl]-5-fluoropyridin-2-yl]-5-but-2-ynoxypyrazine-2-carboxamide; 2,2,2-trifluoroacetic Acid] reads 0.737 nM. The result for `CN1C(N)=N[C@](C)(c2nc(NC(=O)c3ccc(OCC(F)(F)F)cn3)ccc2F)C[S@@]1(=O)=NCC(F)(F)F` [Example 9, N-[6-[(1R,5R)-3-amino-2,5-dimethyl-1-oxo-1-(2,2,2-trifluoroethylimino)-6H-1,2,4-thiadiazin-5-yl]-5-fluoropyridin-2-yl]-5-(2,2,2-trifluoroethoxy)pyridine-2-carboxamide 2,2,2-trifluoroacetic Acid Salt] reads 50.7 nM.
